One experiment addresses T1, human 11β-HSD1 (Homo sapiens, UniProt P28845).
T1 construct: expressed in transfected cells
Kind of experiment: 11β-HSD1 reductase activity (cortisone to cortisol) in lysates of stably transfected HEK-293 cells. The class given is biochemical. Particulars: for remaining activity at 20 µM: 20 μM compound, 100 nM cortisone, HEK-293 cell lysates, read-out: 11β-HSD1 % of control; for IC50: cell lysates. How it is done: (§1) Cells were grown in 10 cm dishes to 80% confluence and incubated for 16 h in steroid-free medium (charcoal-treated fetal calf serum (FCS) from HyClone, Logan, Utah). Cells were rinsed once with phosphate-buffered saline (PBS), detached and centrifuged for 3 min at 150×g. The supernatant was removed and the cell pellet quick-frozen in a dry-ice ethanol bath. At the day of experiment, cell pellets were resuspended in buffer TS2 (100 mM NaCl, 1 mM EGTA, 1 mM EDTA, 1 mM MgCl2, 250 mM sucrose, 20 mM Tris-HCl, pH 7.4), sonicated and activities determined immediately. The rate of conversion of cortisol to cortisone or the reverse reaction was determined in 96-well optical PCR reaction plates (Applied Biosystems, Foster City, Calif.) in a final volume of 22 μl, and the tubes were capped during the reaction to avoid evaporation.
Reactions were initiated simultaneously by adding 10 μl of cell lysate and 12 μl of TS2 buffer containing the appropriate concentration of the inhibitory compound to be tested, NADPH, 30 nCi of [1,2,6,7-^3H]-cortisone and unlabeled cortisone, whereby final concentrations were 400 μM NADPH and 100 nM cortisone. Activities were determined immediately after cell disruption by measuring the conversion of radiolabeled cortisone to cortisol for 10 min.
(§2) Enzyme kinetics were analyzed by non-linear regression using Data Analysis Toolbox (MDL Information Systems Inc.) assuming first-order rate kinetics. Data represent mean ±SD of four to five independent experiments.
(§3) Assay with 20 μM of the corresponding compound in the reaction mixture, added simultaneously with the substrate:
(§4) Determination of IC50 values, using 7 different inhibitor concentrations at factor 2 intervals: […]

The target in the next experiment is T2, human 11β-HSD2 (Homo sapiens, UniProt P80365).
T2 construct: expressed in transfected cells
T2 sequence (P80365 1-405): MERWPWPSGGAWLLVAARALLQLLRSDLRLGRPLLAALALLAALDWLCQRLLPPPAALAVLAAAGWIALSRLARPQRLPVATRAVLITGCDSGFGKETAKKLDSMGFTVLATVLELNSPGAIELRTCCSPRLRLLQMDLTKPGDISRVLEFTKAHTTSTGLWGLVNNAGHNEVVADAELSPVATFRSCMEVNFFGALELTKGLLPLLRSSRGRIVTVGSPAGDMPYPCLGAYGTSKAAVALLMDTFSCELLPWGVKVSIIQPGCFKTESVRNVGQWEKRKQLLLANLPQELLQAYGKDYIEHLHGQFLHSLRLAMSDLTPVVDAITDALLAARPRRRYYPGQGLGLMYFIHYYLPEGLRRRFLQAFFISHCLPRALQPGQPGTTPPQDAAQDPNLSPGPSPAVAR
Kind of experiment: 11β-HSD2 oxidase activity (cortisol to cortisone) in lysates of stably transfected HEK-293 cells. The class given is biochemical. Particulars: for remaining activity at 20 µM: read-out: 11β-HSD2 % of control. The procedure:
as §1
Reactions were initiated by simultaneously adding 10 μl of cell lysate and 12 μl of TS2 buffer containing the appropriate concentration of the inhibitory compound to be tested, NAD^+, 30 nCi of [1,2,6,7-^3H]-cortisol and unlabeled cortisol. […] Stock solutions of the inhibitors in methanol or DMSO were diluted in TS2 buffer to yield the appropriate concentrations, whereby the concentration of methanol or DMSO in the reactions were kept below 0.1%. Control reactions with or without 0.1% of the solvent were performed. Incubation was at 37° C. for 10 min with shaking, reactions were terminated by adding 10 μl of stop solution containing 2 mM of unlabeled cortisol and cortisone dissolved in methanol. The conversion of radiolabeled cortisol was determined by separation of cortisol and cortisone using TLC and a solvent system of 9:1 (v/v) chloroform:methanol, followed by scintillation counting.
as §2, §3, §4

Setting [1] is: 20 μM compound, 25 nM cortisol, HEK-293 cell lysates.
The mark [2] stands for this setting: cell lysates, 7 inhibitor concentrations at factor 2 intervals, experiment 2, read-out: IC 50 11β-HSD2, determination 2.
Setting [3] is: cell lysates, 7 inhibitor concentrations at factor 2 intervals, experiment 3, read-out: IC 50 11β-HSD2, determination 3.

Molecules are shown by their SMILES. Where two headings read alike, the source gives them in different places.

T1 sequence (P28845 whole entry): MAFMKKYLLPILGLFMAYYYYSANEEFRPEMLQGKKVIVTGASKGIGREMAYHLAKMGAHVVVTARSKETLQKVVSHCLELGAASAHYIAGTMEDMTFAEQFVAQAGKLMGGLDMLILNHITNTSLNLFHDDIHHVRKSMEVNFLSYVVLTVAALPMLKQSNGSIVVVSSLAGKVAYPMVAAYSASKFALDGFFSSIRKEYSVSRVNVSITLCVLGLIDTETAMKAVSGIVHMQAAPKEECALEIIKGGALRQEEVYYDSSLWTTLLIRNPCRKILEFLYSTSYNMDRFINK

On to `Cc1nn(CC(=O)Nc2sc(C)c(C)c2C(N)=O)c(C)c1[N+](=O)[O-]` [BNW4], for which the remaining activity at 20 µM is 82.2% on human 11β-HSD1 and 95% on human 11β-HSD2 (setting [1]).

Regarding `COc1cc2c(cc1OC)C(COc1ccc([N+](=O)[O-])cc1)N(C(=O)c1ccc(Cl)c([N+](=O)[O-])c1)CC2` (stereo not drawn) [BNW27], the remaining activity at 20 µM on human 11β-HSD1 is 78.6%; on human 11β-HSD2 (setting [1]) it was 126%.

Consider `CCN(CC)S(=O)(=O)c1ccc(OC)c(-c2nnc(-c3cc(S(=O)(=O)N(CC)CC)ccc3OC)o2)c1` [BNW29], for which the remaining activity at 20 µM was found to be 75.3% at human 11β-HSD1 and 115% at human 11β-HSD2 (setting [1]).

For `CCOc1ccc(C2C(C(=O)c3ccc(Cl)cc3)=C(O)C(=O)N2CCCn2ccnc2)cc1OCC` (stereo not drawn) [BNW22], the remaining activity at 20 µM on human 11β-HSD1 came to 41.3%; at human 11β-HSD2 (setting [1]), 104%.

As to `CCCCOc1ccc(C(=O)C2=C(O)C(=O)N(CCOC)C2c2cccnc2)c(C)c1` (stereo not drawn) [BNW3], the remaining activity at 20 µM on human 11β-HSD1 stood at 60.3%; on human 11β-HSD2 (setting [1]), 53.6%.

As to `COC(=O)[C@@]1(C)CC[C@]2(C)CC[C@]3(C)C(=CC(=O)[C@@H]4[C@@]5(C)CC[C@H](Oc6ccccc6C(=O)O)C(C)(C)[C@@H]5CC[C@]43C)[C@@H]2C1` [BNW13, (2S,4aS,6aS,6bR,8aR,10S,12aS,12bR,14bR)-10-(2-Carboxy-phenoxy)-2,4a,6a,6b,9,9,12a-heptamethyl-13-oxo-1,2,3,4,4a,5,6,6a,6b,7,8,8a,9,10,11,12,12a,12b,13,14b-icosahydro-picene-2-carboxylic acid methyl ester], the remaining activity at 20 µM at human 11β-HSD1 turned out to be 3.9%; at human 11β-HSD2 (setting [1]), 14.4%. Also, the IC50 on human 11β-HSD1 (7 inhibitor concentrations at factor 2 intervals, experiment 1, read-out: IC 50 11β-HSD1, determination 1) was 666 nM; on human 11β-HSD1 (7 inhibitor concentrations at factor 2 intervals, experiment 2, read-out: IC 50 11β-HSD1, determination 2), 756 nM; at human 11β-HSD1 (7 inhibitor concentrations at factor 2 intervals, experiment 3, read-out: IC 50 11β-HSD1, determination 3), 652 nM; on human 11β-HSD2 (setting [2]) it was 263 nM; on human 11β-HSD2 (setting [3]), 299 nM.

In the case of `COCCC1C(=O)C(O)=C(C(=O)c2ccc(OC)c(C)c2)C1c1ccc(Cl)cc1Cl` (stereo not drawn) [BNW9], the values for the remaining activity at 20 µM at human 11β-HSD1 and at human 11β-HSD2 (setting [1]) were 30.7% and 77.4%, respectively.

Consider `CSc1nc2cc(C)c(C)cc2n1C1OC(CO)C(O)C1O` (stereo not drawn) [BNW18], for which the remaining activity at 20 µM on human 11β-HSD1 was 92%; on human 11β-HSD2 (setting [1]) it was 82.8%.

Consider `NC(=O)c1c(NC(=O)C2CC=CCC2C(=O)O)sc2c1CCCCC2` (stereo not drawn) [BNW8], for which the values for the remaining activity at 20 µM on human 11β-HSD1 and at human 11β-HSD2 (setting [1]) were 41.7% and 103%, respectively.

Consider `COc1ccc(OC)c(C2C(C(=O)c3ccc(Br)cc3)=C(O)C(=O)N2CCCn2ccnc2)c1` (stereo not drawn) [BNW2], for which the results for the remaining activity at 20 µM on human 11β-HSD1 and at human 11β-HSD2 (setting [1]) were 78.8% and 78%, respectively.

Turning to `CC1(C)[C@@H](OCO)CC[C@]2(C)[C@H]3C(=O)C=C4C5=C[C@@](C)(C(=O)O)CC[C@]5(C)CC[C@@]4(C)[C@]3(C)CC[C@@H]12` [BNW15], the values for the remaining activity at 20 µM at human 11β-HSD1 and at human 11β-HSD2 (setting [1]) were 50.4% and 56.9%, respectively.

Consider `COc1ccc(C(=O)C2=C(O)C(=O)N(CCCn3ccnc3)C2c2ccccc2)cc1Cl` (stereo not drawn) [BNW21], for which the remaining activity at 20 µM at human 11β-HSD1 worked out at 48.9%; on human 11β-HSD2 (setting [1]) it was 122%.

In the case of `CCN(CC)S(=O)(=O)c1ccc(Cl)c(C(=O)Nc2nc3ccc(S(C)(=O)=O)cc3s2)c1` [BNW12], the values for the remaining activity at 20 µM at human 11β-HSD1 and on human 11β-HSD2 (setting [1]) were 85.4% and 132%, respectively.

As for `Cc1n[nH]c(O)c1C(c1ccc(-c2ccc(Cl)c(C(=O)O)c2)o1)c1c(O)n[nH]c1C` [BNW5], the results for the remaining activity at 20 µM at human 11β-HSD1 and on human 11β-HSD2 (setting [1]) were 69.8% and 97.5%, respectively.

On to `COc1cccc(/C=N/NC(=O)CSCc2ccccc2C)c1OC` [BNW23], for which the remaining activity at 20 µM at human 11β-HSD1 was 85.1%; at human 11β-HSD2 (setting [1]), 133%.

Take `CC1(C)[C@@H](N)CC[C@]2(C)[C@H]3C(=O)C=C4[C@@H]5C[C@@](C)(C(=O)O)CC[C@]5(C)CC[C@@]4(C)[C@]3(C)CC[C@@H]12` [BNW25, (2S,4aS,6aS,6bR,8aR,10S,12aS,12bR,14bR)-10-Amino-2,4a,6a,6b,9,9,12a-heptamethyl-13-oxo-1,2,3,4,4a,5,6,6a,6b,7,8,8a,9,10,11,12,12a,12b,13,14b-icosahydro-picene−2-carboxyiic acid]: the results for the remaining activity at 20 µM on human 11β-HSD1 and at human 11β-HSD2 were 2.9% and 13.9%, respectively. Moreover, the IC50 on human 11β-HSD1 (mean of determinations 1-3, read-out: IC 50 11β-HSD1, Mean) worked out at 172 nM; on human 11β-HSD2 (setting [2]), 54.6 nM; at human 11β-HSD2 (setting [3]) it was 64.9 nM; at human 11β-HSD2 (read-out: IC 50 11β-HSD2, Mean), 59.7 nM.

In the case of `CCOc1ccc(C2c3cc(OCC)c(OCC)cc3CC(=O)N2c2ccc(C(=O)O)cc2)cc1OCC` (stereo not drawn) [BNW17], the remaining activity at 20 µM at human 11β-HSD1 was found to be 88.2%; at human 11β-HSD2 (setting [1]), 120%.

For the compound `COc1ccc(CNC(=O)C2CCC(=O)N2C2CCCC2)cc1OC` (stereo not drawn) [BNW26], the remaining activity at 20 µM at human 11β-HSD1 was 94.1%; at human 11β-HSD2 (setting [1]) it was 137%.

Take `COCCN1C(=O)C(O)=C(C(=O)c2ccc(OC)c(C)c2)C1c1ccc(C)cc1` (stereo not drawn) [BNW20]: the remaining activity at 20 µM is 46.8% at human 11β-HSD1 and 121% on human 11β-HSD2 (setting [1]).

As for `COc1ccc(C(=O)NCc2cccc(Cl)c2Cl)c(C(F)(F)F)c1` [BNW6], the values for the remaining activity at 20 µM at human 11β-HSD1 and on human 11β-HSD2 (setting [1]) were 79.6% and 145%, respectively.

On to `COc1cc(/C=N/NC(=O)CSc2nc3ccccc3n2Cc2ccc(C)cc2)cc(OC)c1OC(C)=O` [BNW28], for which the figures for the remaining activity at 20 µM at human 11β-HSD1 and on human 11β-HSD2 (setting [1]) were 76.7% and 137%, respectively.

As to `CCC(Sc1nnc(-c2ccc(OC)c(OC)c2)c(-c2ccc(OC)c(OC)c2)n1)C(=O)N(CC)CC` (stereo not drawn) [BNW30], the remaining activity at 20 µM on human 11β-HSD1 amounted to 48.4%; at human 11β-HSD2 (setting [1]), 140%.

With `CCN(CC(O)COc1cc(C)c(Cl)c(C)c1)S(=O)(=O)O` (stereo not drawn) [BNW1], the figures for the remaining activity at 20 µM on human 11β-HSD1 and on human 11β-HSD2 (setting [1]) were 102% and 96.8%, respectively.

With `Cc1cccc(C)c1C1C(SCC(=O)Nc2c(Cl)cccc2Cl)=NN=C1c1cccc([S+]([O-])N(C)C)c1` (stereo not drawn) [BNW11], the remaining activity at 20 µM on human 11β-HSD1 turned out to be 70.1%; on human 11β-HSD2 (setting [1]), 121%.

(Values after patent publication US20080153791A1, “11Beta -Hydroxysteroid Dehydrogenases” (onpharm GmbH, priority 2005, published 2008).)
